# Columns and labels:
# Carbonic anhydrase 1 = Carbonic anhydrase 1 (Homo sapiens, UniProt P00915); test: Inhibition of human carbonic anhydrase 1 assessed as inhibitory constant preincubated for 15 mins by stopped-flow CO2 hydration assay
# Carbonic anhydrase 2 = Carbonic anhydrase 2 (Homo sapiens, UniProt P00918); test: Inhibition of human carbonic anhydrase 2 assessed as inhibitory constant preincubated for 15 mins by stopped-flow CO2 hydration assay
# Carbonic anhydrase 9 = Carbonic anhydrase 9 (Homo sapiens, UniProt Q16790); test: Inhibition of human carbonic anhydrase 9 assessed as inhibitory constant preincubated for 15 mins by stopped-flow CO2 hydration assay
# Carbonic anhydrase 12 = Carbonic anhydrase 12 (Homo sapiens, UniProt O43570); test: Inhibition of human carbonic anhydrase 12 assessed as inhibitory constant preincubated for 15 mins by stopped-flow CO2 hydration assay
# Chain of Carbonic anhydrase 12 (O43570 whole entry): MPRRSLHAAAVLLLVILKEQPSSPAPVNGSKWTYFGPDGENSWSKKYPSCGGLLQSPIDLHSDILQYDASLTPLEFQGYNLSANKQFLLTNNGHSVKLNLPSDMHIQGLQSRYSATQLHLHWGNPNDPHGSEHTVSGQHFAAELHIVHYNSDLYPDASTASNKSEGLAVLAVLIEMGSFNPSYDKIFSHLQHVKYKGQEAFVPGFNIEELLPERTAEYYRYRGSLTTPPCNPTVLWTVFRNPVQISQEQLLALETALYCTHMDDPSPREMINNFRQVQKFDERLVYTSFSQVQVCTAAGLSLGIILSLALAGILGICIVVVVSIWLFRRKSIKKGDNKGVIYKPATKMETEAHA
# Chain of Carbonic anhydrase 1 (P00915 whole entry): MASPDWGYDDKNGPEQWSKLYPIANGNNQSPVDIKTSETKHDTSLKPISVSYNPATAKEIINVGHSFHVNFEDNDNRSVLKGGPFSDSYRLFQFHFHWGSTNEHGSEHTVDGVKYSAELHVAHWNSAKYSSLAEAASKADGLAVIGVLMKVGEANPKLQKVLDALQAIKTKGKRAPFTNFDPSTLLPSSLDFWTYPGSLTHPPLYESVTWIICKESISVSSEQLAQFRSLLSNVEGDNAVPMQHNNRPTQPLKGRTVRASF
Compound,Ki (Carbonic anhydrase 1),Ki (Carbonic anhydrase 2),Ki (Carbonic anhydrase 9),Ki (Carbonic anhydrase 12)
COc1cc(-c2cc(=O)n(C(C)(C)C)[s+]2[O-])cc(OC)c1OC (stereo not drawn),> 10000 nM,> 10000 nM,237 nM,–
CC(C)(C)N1C(=O)C=C(Cl)S1(=O)=O,–,> 10000 nM,227 nM,–
CC(C)(C)n1c(=O)cc(-c2cccs2)[s+]1[O-] (stereo not drawn),> 10000 nM,> 10000 nM,48.6 nM,–
CC(C)(C)n1c(=O)cc(-c2ccc3ccccc3c2)[s+]1[O-] (stereo not drawn),–,> 10000 nM,16 nM,–
O=c1cc(-c2ccccc2)[s+]([O-])[nH]1 (stereo not drawn),> 10000 nM,> 10000 nM,45.5 nM,–
O=c1cc(-c2cn(S(=O)(=O)c3ccccc3)c3ccccc23)[s+]([O-])[nH]1 (stereo not drawn),> 10000 nM,> 10000 nM,101 nM,–
O=C1C=C(c2ccccc2)S(=O)(=O)N1,> 10000 nM,> 10000 nM,40.3 nM,–
CC(C)(C)n1c(=O)cc(-c2ccccc2)[s+]1[O-] (stereo not drawn),> 10000 nM,> 10000 nM,4.5 nM,–
CC(C)(C)n1c(=O)cc(Cl)[s+]1[O-] (stereo not drawn),454 nM,> 10000 nM,171 nM,53.6 nM
CC(C)(C)N1C(=O)C=C(c2cc3ccccc3n2S(=O)(=O)c2ccccc2)S1(=O)=O,> 10000 nM,> 10000 nM,347 nM,–
CC(C)(C)n1c(=O)cc(-c2cc3ccccc3o2)[s+]1[O-] (stereo not drawn),–,> 10000 nM,251 nM,–
CC(C)(C)n1sc(Cl)cc1=O,–,> 10000 nM,98.5 nM,–
CC(C)(C)n1c(=O)cc(-c2cc3ccccc3n2S(=O)(=O)c2ccccc2)[s+]1[O-] (stereo not drawn),> 10000 nM,> 10000 nM,40.3 nM,–
CC(C)(C)N1C(=O)C=C(c2ccccc2)S1(=O)=O,> 10000 nM,1570 nM,28.4 nM,–
CC(C)(C)n1c(=O)cc(-c2cn(S(=O)(=O)c3ccccc3)c3ccccc23)[s+]1[O-] (stereo not drawn),> 10000 nM,2110 nM,8.8 nM,–
CC(C)(C)n1c(=O)cc(-c2cc3ccccc3s2)[s+]1[O-] (stereo not drawn),–,> 10000 nM,133 nM,–
CC(C)(C)OC(=O)n1c(-c2cc(=O)n(C(C)(C)C)[s+]2[O-])cc2ccccc21 (stereo not drawn),> 10000 nM,> 10000 nM,47.7 nM,–
CC(C)(C)N1C(=O)C=C(c2cccs2)S1(=O)=O,> 10000 nM,> 10000 nM,221 nM,–
CC(C)(C)N1C(=O)C=C(c2cn(S(=O)(=O)c3ccccc3)c3ccccc23)S1(=O)=O,> 10000 nM,81.8 nM,4.3 nM,–

# From ChEMBL document CHEMBL4393696, “5-Arylisothiazol-3(2H)-one-1,(1)-(di)oxides: A new class of selective tumor-associated carbonic anhydrases (hCA IX and XII) inhibitors” (Eur J Med Chem, 2019)
